Results on two compounds are retold here after ChEMBL document CHEMBL1132365, “A multisubstrate adduct inhibitor of AICAR transformylase” (J Med Chem, 1999).

A word on the pIC50: it is the IC50 on a negative log10 scale, so that one unit is a factor of ten. Broadly, the pKd is the negative decadic logarithm of the Kd, by convention in mol/L. A higher pKd goes with a low Kd.

In assay [1] the target is AICAR transformylase (Lactobacillus casei). Put plainly: Inhibitory activity against AICAR formyltransferase.
For assay [2], the target named is T1, Bifunctional purine biosynthesis protein ATIC (Homo sapiens, UniProt P31939). Put plainly: Inhibitory activity against AICAR formyltransferase.
T1 sequence (P31939 whole entry): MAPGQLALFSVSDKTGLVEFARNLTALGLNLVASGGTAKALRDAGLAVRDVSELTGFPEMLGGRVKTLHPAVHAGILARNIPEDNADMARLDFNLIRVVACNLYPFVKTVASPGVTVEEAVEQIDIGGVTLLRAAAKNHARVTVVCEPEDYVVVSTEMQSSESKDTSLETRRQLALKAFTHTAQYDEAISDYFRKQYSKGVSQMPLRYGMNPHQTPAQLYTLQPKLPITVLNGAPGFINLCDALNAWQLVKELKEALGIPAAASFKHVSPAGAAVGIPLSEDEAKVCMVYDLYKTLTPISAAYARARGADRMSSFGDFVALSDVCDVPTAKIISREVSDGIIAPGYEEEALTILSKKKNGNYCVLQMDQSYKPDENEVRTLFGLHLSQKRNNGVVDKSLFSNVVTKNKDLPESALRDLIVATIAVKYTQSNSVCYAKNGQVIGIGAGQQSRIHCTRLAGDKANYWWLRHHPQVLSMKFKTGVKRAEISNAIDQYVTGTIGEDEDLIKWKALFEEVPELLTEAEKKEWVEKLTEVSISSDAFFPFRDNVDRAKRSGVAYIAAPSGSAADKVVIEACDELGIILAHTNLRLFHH
Assay [3] addresses T1, Bifunctional purine biosynthesis protein ATIC. Put plainly: Binding affinity towards AICAR formyltransferase.

pIC50, pKd: −log10 of the molar value.

`Nc1nc(=O)c2nc(CN(C=O)c3ccc(C(=O)N[C@H](CCC(=O)O)C(=O)O)cc3)ccc2[nH]1`: the pIC50 in assay [1] was 5.19. For `NC(=O)c1ncn(C2O[C@H](COP(=O)(O)O)[C@@H](O)[C@H]2O)c1/C=C/C(=O)N(CC1=NC2C(=O)NC(N)=NC2C=C1)c1ccc(C(=O)N[C@@H](CCC(=O)O)C(=O)O)cc1` (stereo partly drawn), the pIC50 in assay [2] is 6.90. In addition, in assay [3], the pKd is 7.70.
